Assay results reported in patent US12304900B2, “Islet cell manufacturing compositions and methods of use” (Vertex Pharmaceuticals Incorporated, priority 2017, dated 2025).

Tested on: PGT cells (Stage 2 cells)
Test: Flow cytometry of cell constituent at Stage 4-complete after signaling factors at Stage 3
Format: cell-based
Text: In the meantime, LDN193189 also promoted chromogranin A (CHGA) expression in Stage 4-complete cells.

[1] = Stage 4-complete, 0.5 μM DMH-1 alone vs no DMH-1, FIG. 6B

## CC(C)Oc1ccc(-c2cnc3c(-c4ccnc5ccccc45)cnn3c2)cc1 [DMH-1]
[1]
  percentage of cells expressing CDX2: reduced
  percentage of cells expressing CHGA: increased

## c1ccc2c(-c3cnn4cc(-c5ccc(N6CCNCC6)cc5)cnc34)ccnc2c1 [LDN193189, 4-[6-(4-piperazin-1-ylphenyl)pyrazolo[1,5-a]pyrimidin-β-yl]quinolone]
Stage 4-complete cells, LDN193189 at Stage 3, FIG. 6A
  chromogranin A (CHGA) expression: promoted
Stage 4-complete, LDN193189 at Stage 3 vs absence, FIG. 6A
  percentage of CDX2-positive cells: clearly reduced
